Here are results for eight compounds from US10004701B2, “Methods and compositions for treating infection” (UNIVERSITY OF ROCHESTER, priority 2012, dated 2018).

Where a name gives a salt, the structure may show the parent alone. Read-outs that look alike come from different tables or passages of the source.

Common to all, as to test: AK assay 384-well format, Prestwick library screening
The test system of experiment [1] is A. baumannii strain 98-37-09. The experiment is classed as cell-based, Acinetobacter baumannii. The following applies: for fold induction at 50 µM: Acinetobacter baumannii, 983709, 3 h.
For experiment [2], the system named is S. aureus strain USA300-0114. It counts as cell-based, Staphylococcus aureus. As to conditions: for fold induction at 50 µM: Staphylococcus aureus, USA300, 3 h.
Another experiment concerns E. cloacae. The experiment is classed as cell-based, Enterobacter cloacae. The following applies: for fold induction at 50 µM: Enterobacter cloacae, 3 h.
The test system of the next experiment is E. faecium. It counts as cell-based, Enterococcus faecium. The following applies: for fold induction at 50 µM: Enterococcus faecium, 3 h.
Another experiment relates to P. aeruginosa. The experiment is classed as cell-based, Pseudomonas aeruginosa. The following applies: for fold induction at 50 µM: Pseudomonas aeruginosa, 3 h.
The next experiment deals with K. pneumoniae. It counts as cell-based, Klebsiella pneumoniae. The following applies: for fold induction at 50 µM: Klebsiella pneumoniae, 3 h.
A further experiment has as its system E. coli. It counts as cell-based, Escherichia coli. As to conditions: for fold induction at 50 µM: Escherichia coli, 3 h.
The mark [3] stands for this setting: planktonic A. baumannii, 50 μM final drug concentration, positive cutoff 3-fold increase, read-out: AK-based Prestwick library screening result, A. baumannii (fold increase in extracellular AK activity).
The mark [4] stands for this setting: planktonic S. aureus, 50 μM final drug concentration, positive cutoff 3-fold increase, read-out: AK-based Prestwick library screening result, S. aureus (fold increase in extracellular AK activity).
Where [5] appears, read: planktonic E. cloacae, 50 μM final drug concentration, positive cutoff 3-fold increase, read-out: AK-based Prestwick library screening result, E. cloacae (fold increase in extracellular AK activity).
The mark [6] stands for this setting: planktonic E. faecium, 50 μM final drug concentration, positive cutoff 3-fold increase, read-out: AK-based Prestwick library screening result, E. faecium (fold increase in extracellular AK activity).
[7] abbreviates: planktonic P. aeruginosa, 50 μM final drug concentration, positive cutoff 3-fold increase, read-out: AK-based Prestwick library screening result, P. aeruginosa (fold increase in extracellular AK activity).
Where [8] appears, read: planktonic K. pneumoniae, 50 μM final drug concentration, positive cutoff 3-fold increase, read-out: AK-based Prestwick library screening result, K. pneumoniae (fold increase in extracellular AK activity).
Where [9] appears, read: planktonic E. coli, 50 μM final drug concentration, positive cutoff 3-fold increase, read-out: AK-based Prestwick library screening result, E. coli (fold increase in extracellular AK activity).
Where [10] appears, read: planktonic E. coli, 50 μM final drug concentration.

Consider `CC(=C(CCO)SSCC1CCCO1)N(C=O)Cc1cnc(C)nc1N` (stereo in doubt) [Fursultiamine Hydrochloride], for which the fold induction at 50 µM in experiment [1] (read-out: AK-based Prestwick library screening result, A. baumannii (fold increase in extracellular AK activity)) is 1.3; in experiment [2] (read-out: AK-based Prestwick library screening result, S. aureus (fold increase in extracellular AK activity)), 1; in the experiment with E. cloacae (read-out: AK-based Prestwick library screening result, E. cloacae (fold increase in extracellular AK activity)), 1.2; with E. faecium (read-out: AK-based Prestwick library screening result, E. faecium (fold increase in extracellular AK activity)), 1.1; in the experiment with P. aeruginosa (read-out: AK-based Prestwick library screening result, P. aeruginosa (fold increase in extracellular AK activity)), 1.1; in the experiment on K. pneumoniae (read-out: AK-based Prestwick library screening result, K. pneumoniae (fold increase in extracellular AK activity)), 1. For the same compound, the fold induction at 50 µM with E. coli (read-out: AK-based Prestwick library screening result, E. coli (fold increase in extracellular AK activity)) was 1.4.
For `CCN[C@H]1C[C@H](C)S(=O)(=O)c2sc(S(N)(=O)=O)cc21` [Dorzolamide hydrochloride], the fold induction at 50 µM in experiment [1] (setting [3]) came out at 1.2; in experiment [2] (setting [4]) it was 1; in the experiment on E. cloacae (setting [5]) it was 1.3; in the experiment on E. faecium (setting [6]), 2.3; in the experiment with P. aeruginosa (setting [7]) it was 0.9; in the experiment on K. pneumoniae (setting [8]), 1.1. Also, in the experiment with E. coli (setting [9]), the fold induction at 50 µM was 1.1.
`CN[C@@H]1[C@H](O)[C@H](NC)[C@H]2O[C@@]3(O)C(=O)C[C@@H](C)O[C@H]3O[C@@H]2[C@H]1O` [Spectinomycin dihydrochloride]: the fold induction at 50 µM in experiment [1] (50 μM final drug concentration, planktonic, cutoff for positive-scoring molecules 3-fold increase, read-out: AK-based Prestwick Library Screening Results, A. baumannii (fold increase in extracellular AK activity)) stood at 0.5; in experiment [2] (50 μM final drug concentration, planktonic, cutoff for positive-scoring molecules 3-fold increase, read-out: AK-based Prestwick Library Screening Results, S. aureus (fold increase in extracellular AK activity)), 0.6; in the experiment with E. cloacae (50 μM final drug concentration, planktonic, cutoff for positive-scoring molecules 3-fold increase, read-out: AK-based Prestwick Library Screening Results, E. cloacae (fold increase in extracellular AK activity)), 0.6; with E. faecium (50 μM final drug concentration, planktonic, cutoff for positive-scoring molecules 3-fold increase, read-out: AK-based Prestwick Library Screening Results, E. faecium (fold increase in extracellular AK activity)) it was 1; in the experiment on P. aeruginosa (50 μM final drug concentration, planktonic, cutoff for positive-scoring molecules 3-fold increase, read-out: AK-based Prestwick Library Screening Results, P. aeruginosa (fold increase in extracellular AK activity)), 0.5; in the experiment with K. pneumoniae (50 μM final drug concentration, planktonic, cutoff for positive-scoring molecules 3-fold increase, read-out: AK-based Prestwick Library Screening Results, K. pneumoniae (fold increase in extracellular AK activity)), 0.2. Besides, the fold induction at 50 µM in the experiment on E. coli (50 μM final drug concentration, planktonic, cutoff for positive-scoring molecules 3-fold increase, read-out: AK-based Prestwick Library Screening Results, E. coli (fold increase in extracellular AK activity)) is 0.6.
Consider `Nc1ccc(S(=O)(=O)Nc2ccnn2-c2ccccc2)cc1` [Sulfaphenazole], for which the fold induction at 50 µM in experiment [1] (50 μM final drug concentration, 384-well format, cutoff for positive-scoring molecules 3-fold increase, read-out: AK-based Prestwick Library Screening Results, A. baumannii (increase in extracellular AK activity)) came to 1.4; in experiment [2] (50 μM final drug concentration, 384-well format, cutoff for positive-scoring molecules 3-fold increase, read-out: AK-based Prestwick Library Screening Results, S. aureus (increase in extracellular AK activity)) it was 0.8; with E. cloacae (50 μM final drug concentration, 384-well format, cutoff for positive-scoring molecules 3-fold increase, read-out: AK-based Prestwick Library Screening Results, E. cloacae (increase in extracellular AK activity)), 0.8; with E. faecium (50 μM final drug concentration, 384-well format, cutoff for positive-scoring molecules 3-fold increase, read-out: AK-based Prestwick Library Screening Results, E. faecium (increase in extracellular AK activity)), 0.8; with P. aeruginosa (50 μM final drug concentration, 384-well format, cutoff for positive-scoring molecules 3-fold increase, read-out: AK-based Prestwick Library Screening Results, P. aeruginosa (increase in extracellular AK activity)), 0.8; in the experiment with K. pneumoniae (50 μM final drug concentration, 384-well format, cutoff for positive-scoring molecules 3-fold increase, read-out: AK-based Prestwick Library Screening Results, K. pneumoniae (increase in extracellular AK activity)), 0.7. The fold induction at 50 µM in the experiment with E. coli (50 μM final drug concentration, 384-well format, cutoff for positive-scoring molecules 3-fold increase, read-out: AK-based Prestwick Library Screening Results, E. coli (increase in extracellular AK activity)) is 0.8.
Consider `O=C(O)/C=C/c1ccc(Cn2ccnc2)cc1` [Ozagrel hydrochloride], for which the fold induction at 50 µM worked out at 0.7 in experiment [1] (setting [3]); 0.5 in experiment [2] (setting [4]); 0.9 in the experiment with E. cloacae (setting [5]); 0.9 in the experiment on E. faecium (setting [6]); 0.6 in the experiment with P. aeruginosa (setting [7]); 0.5 with K. pneumoniae (setting [8]). Also, the fold induction at 50 µM in the experiment on E. coli (setting [9]) was 0.6.
Take `CCNC1(c2cccs2)CCCCC1=O.Cl` (centres unmarked) [Tiletamine hydrochloride]: in experiment [1] (planktonic A. baumannii, 50 μM final drug concentration, […]), the “AK-based Prestwick library screening result, A. baumannii (fold increase in extracellular AK activity)” value came to 1.6. For the same compound, the “AK-based Prestwick library screening result, S. aureus (fold increase in extracellular AK activity)” value in experiment [2] (planktonic S. aureus, 50 μM final drug concentration, […]) stood at 1.1. Besides, the “AK-based Prestwick library screening result, E. cloacae (fold increase in extracellular AK activity)” value in the experiment with E. cloacae (planktonic E. cloacae, 50 μM final drug concentration, […]) is reported as 1.4. The “AK-based Prestwick library screening result, E. faecium (fold increase in extracellular AK activity)” value in the experiment with E. faecium (planktonic E. faecium, 50 μM final drug concentration, […]) worked out at 1.0. Also, in the experiment on P. aeruginosa (planktonic P. aeruginosa, 50 μM final drug concentration, […]), the “AK-based Prestwick library screening result, P. aeruginosa (fold increase in extracellular AK activity)” value is on record as 1.1. For the same compound, in the experiment on K. pneumoniae (planktonic K. pneumoniae, 50 μM final drug concentration, […]), the “AK-based Prestwick library screening result, K. pneumoniae (fold increase in extracellular AK activity)” value was found to be 1.1. For the same compound, the “AK-based Prestwick library screening result, E. coli (fold increase in extracellular AK activity)” value in the experiment with E. coli (setting [10]) is on record as 1.2.
Regarding `CCN(CC)CCOCCOC(=O)C1(c2ccccc2)CCCC1` [Carbetapentane citrate], the fold induction at 50 µM in experiment [1] (50 μM final drug concentration, planktonic, cutoff for positive 3-fold increase, read-out: AK-based Prestwick Library Screening Results, A. baumannii (fold increase in extracellular AK activity)) is 1.4; in experiment [2] (50 μM final drug concentration, planktonic, cutoff for positive 3-fold increase, read-out: AK-based Prestwick Library Screening Results, S. aureus (fold increase in extracellular AK activity)), 1.1; in the experiment on E. cloacae (50 μM final drug concentration, planktonic, cutoff for positive 3-fold increase, read-out: AK-based Prestwick Library Screening Results, E. cloacae (fold increase in extracellular AK activity)), 1.4; in the experiment on E. faecium (50 μM final drug concentration, planktonic, cutoff for positive 3-fold increase, read-out: AK-based Prestwick Library Screening Results, E. faecium (fold increase in extracellular AK activity)), 1; in the experiment with P. aeruginosa (50 μM final drug concentration, planktonic, cutoff for positive 3-fold increase, read-out: AK-based Prestwick Library Screening Results, P. aeruginosa (fold increase in extracellular AK activity)), 1.2; in the experiment on K. pneumoniae (50 μM final drug concentration, planktonic, cutoff for positive 3-fold increase, read-out: AK-based Prestwick Library Screening Results, K. pneumoniae (fold increase in extracellular AK activity)), 1. The fold induction at 50 µM in the experiment with E. coli (50 μM final drug concentration, planktonic, cutoff for positive 3-fold increase, read-out: AK-based Prestwick Library Screening Results, E. coli (fold increase in extracellular AK activity)) came out at 1.4.
Consider `COC(=O)Nc1nc2ccc(SC(C)C)cc2[nH]1` [Methiazole], for which the “AK-based Prestwick library screening result, A. baumannii (fold increase in extracellular AK activity)” value in experiment [1] (planktonic A. baumannii, 50 μM final drug concentration, positive cutoff 3-fold increase) amounted to 0.5. Besides, in experiment [2] (planktonic S. aureus, 50 μM final drug concentration, positive cutoff 3-fold increase), the “AK-based Prestwick library screening result, S. aureus (fold increase in extracellular AK activity)” value came out at 1.3. Besides, in the experiment on E. cloacae (planktonic E. cloacae, 50 μM final drug concentration, positive cutoff 3-fold increase), the “AK-based Prestwick library screening result, E. cloacae (fold increase in extracellular AK activity)” value was determined as 1.3. In addition, the “AK-based Prestwick library screening result, E. faecium (fold increase in extracellular AK activity)” value in the experiment with E. faecium (planktonic E. faecium, 50 μM final drug concentration, positive cutoff 3-fold increase) worked out at 0.5. For the same compound, in the experiment on P. aeruginosa (planktonic P. aeruginosa, 50 μM final drug concentration, positive cutoff 3-fold increase), the “AK-based Prestwick library screening result, P. aeruginosa (fold increase in extracellular AK activity)” value is on record as 0.5. Further, in the experiment on K. pneumoniae (planktonic K. pneumoniae, 50 μM final drug concentration, positive cutoff 3-fold increase), the “AK-based Prestwick library screening result, K. pneumoniae (fold increase in extracellular AK activity)” value came to 0.4. For the same compound, in the experiment with E. coli (setting [10]), the “AK-based Prestwick library screening result, E. coli (fold increase in extracellular AK activity)” value is 0.4.
